Results: ChEMBL document CHEMBL6182828, “Medicinal chemistry-based perspectives on thiophene and its derivatives: exploring structural insights to discover plausible druggable leads” (RSC Med Chem, 2025)
≈ marks a conversion by molar mass, not a printed value.

Experiments:
[1] = Half life in po dosed human; type: ADME, organism-based; settings: in vivo
Acetylcholinesterase = Acetylcholinesterase (Homo sapiens, UniProt P22303); experiment: Inhibition of AChE (unknown origin) by Ellman's method
MCF7 = experiment: Antiproliferative activity against human MCF7 cells; type: functional, cell-based; settings: Homo sapiens, MCF7; read-out: IC50
Rattus norvegicus = experiment: Anti-inflammatory activity against carrageenan-induced paw edema in Albino rat assessed as inhibition of paw edema at 50 mg/kg, po relative to control; type: functional; design: scale not given: the % may be the effect or the level left
[2] = molecular target: Amine oxidase [flavin-containing] B (Homo sapiens, UniProt P27338); experiment: Inhibition of human MAO-B measured after 25 mins by Amplex Red reagent based fluorescence analysis
Chain of Amine oxidase [flavin-containing] B (P27338 whole entry): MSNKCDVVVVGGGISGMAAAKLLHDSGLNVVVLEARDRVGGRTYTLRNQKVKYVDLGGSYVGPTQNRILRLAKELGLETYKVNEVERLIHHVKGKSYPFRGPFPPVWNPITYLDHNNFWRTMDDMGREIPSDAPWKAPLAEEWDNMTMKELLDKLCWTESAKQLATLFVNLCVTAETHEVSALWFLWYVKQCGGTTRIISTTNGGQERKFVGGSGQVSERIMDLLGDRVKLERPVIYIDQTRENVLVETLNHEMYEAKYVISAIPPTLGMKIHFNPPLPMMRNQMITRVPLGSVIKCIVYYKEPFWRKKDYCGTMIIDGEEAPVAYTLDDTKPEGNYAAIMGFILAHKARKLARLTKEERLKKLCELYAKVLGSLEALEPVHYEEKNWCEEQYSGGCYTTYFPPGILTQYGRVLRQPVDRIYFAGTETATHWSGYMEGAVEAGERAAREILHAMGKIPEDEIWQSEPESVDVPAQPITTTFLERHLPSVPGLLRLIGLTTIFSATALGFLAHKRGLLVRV

dsRNA = experiment: Inhibition of double stranded RNA (unknown origin); type: nucleic-acid assay
[3] = Antioxidant activity assessed as DPPH radical scavenging activity; type: functional
[4] = Half life in human, iv; type: ADME
[5] = Elimination half life in human at 5 mg/kg, po; type: ADME, organism-based; settings: in vivo, read-out: LambdaZ (converted)
Bacillus subtilis [6] = experiment: Antibacterial activity against Bacillus subtilis ATCC 6633 assessed as zone of inhibition; type: functional
Staphylococcus aureus = experiment: Antibacterial activity against Staphylococcus aureus ATCC 25923 assessed as zone of inhibition; type: functional
[7] = Antioxidant activity assessed as ROS scavenging activity relative to control; type: functional; settings: dose or concentration not given here
Glucagon receptor [8] = molecular target: T1, Glucagon receptor (Homo sapiens, UniProt P47871); experiment: Antagonist activity at wild type human GCGR
T1 sequence (P47871 whole entry): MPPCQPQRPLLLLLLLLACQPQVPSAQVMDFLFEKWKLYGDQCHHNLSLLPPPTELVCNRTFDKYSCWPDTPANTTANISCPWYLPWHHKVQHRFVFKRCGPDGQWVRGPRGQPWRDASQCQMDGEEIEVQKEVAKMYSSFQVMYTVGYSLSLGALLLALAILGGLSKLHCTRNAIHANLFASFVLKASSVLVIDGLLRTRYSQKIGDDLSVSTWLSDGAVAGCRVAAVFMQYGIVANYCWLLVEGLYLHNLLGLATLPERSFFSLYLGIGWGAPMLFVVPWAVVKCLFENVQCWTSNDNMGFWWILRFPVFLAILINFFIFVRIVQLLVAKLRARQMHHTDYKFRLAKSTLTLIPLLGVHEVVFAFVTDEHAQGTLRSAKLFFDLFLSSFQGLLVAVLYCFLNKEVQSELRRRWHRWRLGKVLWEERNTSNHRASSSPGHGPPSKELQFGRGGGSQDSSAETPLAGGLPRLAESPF

Glucagon receptor [9] = molecular target: T1, Glucagon receptor; experiment: Antagonist activity at wild type human GCGR transfected in HEK293T cells assessed as intracellular cAMP accumulation incubated for 60 mins by FRET assay; type: functional, cell-based
[10] = Antioxidant activity assessed as DPPH radical scavenging activity at 10 uM incubated for 30 mins by absorbance based assay relative to control; type: functional
[11] = Inhibition of urease (unknown origin)
[12] = molecular target: T2, Polyunsaturated fatty acid 5-lipoxygenase (Homo sapiens, UniProt P09917); experiment: Inhibition of 5-LOX (unknown origin)
T2 sequence (P09917 whole entry): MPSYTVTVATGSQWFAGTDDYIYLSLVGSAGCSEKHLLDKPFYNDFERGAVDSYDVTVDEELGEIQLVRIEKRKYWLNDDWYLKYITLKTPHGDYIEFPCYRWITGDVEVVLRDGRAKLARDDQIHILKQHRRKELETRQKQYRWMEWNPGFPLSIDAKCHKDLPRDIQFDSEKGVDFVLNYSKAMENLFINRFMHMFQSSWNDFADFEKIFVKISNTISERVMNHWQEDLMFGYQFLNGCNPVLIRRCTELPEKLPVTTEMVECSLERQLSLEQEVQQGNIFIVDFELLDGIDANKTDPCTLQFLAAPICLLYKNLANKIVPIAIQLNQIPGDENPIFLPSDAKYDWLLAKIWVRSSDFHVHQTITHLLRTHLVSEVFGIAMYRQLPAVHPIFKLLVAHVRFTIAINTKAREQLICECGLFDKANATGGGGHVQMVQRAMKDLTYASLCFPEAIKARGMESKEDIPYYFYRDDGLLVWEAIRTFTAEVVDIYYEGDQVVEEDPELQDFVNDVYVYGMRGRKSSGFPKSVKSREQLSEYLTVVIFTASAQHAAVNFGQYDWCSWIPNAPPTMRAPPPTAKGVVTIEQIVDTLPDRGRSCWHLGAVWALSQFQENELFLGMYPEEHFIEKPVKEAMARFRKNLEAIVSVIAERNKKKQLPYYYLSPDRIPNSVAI

Bacillus subtilis [13] = experiment: Antibacterial activity against Bacillus subtilis ATCC 6633 assessed as zone of inhibition incubated for 48 hrs by agar diffusion method; type: functional
Escherichia coli = experiment: Antibacterial activity against Escherichia coli ATCC 35218 assessed as zone of inhibition incubated for 48 hrs by agar diffusion method; type: functional
MDA-MB-231 = experiment: cells; settings: Homo sapiens
Description: Cytotoxicity against human MDA-MB-231 cells assessed as reduction in cell viability by MTT assay

PC-3 = experiment: cells; settings: Homo sapiens
Description: Cytotoxicity against human PC-3 cells assessed as reduction in cell viability by MTT assay

A549 = experiment: cells; settings: Homo sapiens
Description: Cytotoxicity against human A549 cells assessed as reduction in cell viability by MTT assay

Chain of Acetylcholinesterase (P22303 whole entry): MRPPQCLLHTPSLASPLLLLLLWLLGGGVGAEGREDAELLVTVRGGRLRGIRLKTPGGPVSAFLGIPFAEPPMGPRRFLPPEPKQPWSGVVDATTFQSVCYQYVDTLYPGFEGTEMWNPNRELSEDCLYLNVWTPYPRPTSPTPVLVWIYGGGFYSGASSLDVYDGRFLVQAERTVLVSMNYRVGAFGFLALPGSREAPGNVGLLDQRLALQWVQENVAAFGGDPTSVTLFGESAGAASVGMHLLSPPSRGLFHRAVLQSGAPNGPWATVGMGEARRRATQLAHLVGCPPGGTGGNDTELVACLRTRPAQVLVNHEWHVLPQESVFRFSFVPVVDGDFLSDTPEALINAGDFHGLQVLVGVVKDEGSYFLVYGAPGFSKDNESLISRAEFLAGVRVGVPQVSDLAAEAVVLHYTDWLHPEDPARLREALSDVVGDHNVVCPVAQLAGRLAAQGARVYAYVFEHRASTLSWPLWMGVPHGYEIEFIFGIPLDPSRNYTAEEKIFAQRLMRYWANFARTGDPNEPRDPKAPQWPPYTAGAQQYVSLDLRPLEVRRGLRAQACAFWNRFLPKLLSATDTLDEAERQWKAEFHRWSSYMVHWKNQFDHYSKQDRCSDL

Cc1cc(C2=NO[C@@](c3cc(Cl)c(Cl)c(Cl)c3)(C(F)(F)F)C2)sc1C(=O)NCC(=O)NCC(F)(F)F [LOTILANER]
half-life [1]: 11 h

O=C(/C=C/c1cccs1)c1ccc(OCCCCBr)cc1
IC50 (Acetylcholinesterase): 0.42 µM

Cc1nc2ccc(CN(C)c3ccc(C(=O)N[C@@H](CCC(=O)O)C(=O)O)s3)cc2c(=O)[nH]1 [RALTITREXED]
half-life [1]: 192 h

Nc1sc2c(c1C(=O)Nc1cnc3ccccc3c1)CCCC2
IC50 (MCF7): 33.1 µM

N#Cc1c(-c2ccc(N3CCOCC3)cc2)csc1N
Activity (Rattus norvegicus): 48.94%

O=C(Nc1nc(-c2cc(Cl)cs2)c(N2CCN(C3CCCCC3)CC2)s1)c1cnc(N2CCC(C(=O)O)CC2)c(Cl)c1 [AVATROMBOPAG]
half-life [1]: 19 h

C/C(=N\N=C1/CS(=O)(=O)N(C)c2ccccc21)c1ccc(Br)s1
IC50 [2]: 1.03 µM

Clc1ccc(C2CC(c3ccc(Cl)s3)=NN2c2ccccc2)cc1 (stereo not given)
IC50 (dsRNA): 11 µM

COc1cccc(NC(=O)Cn2cc(CN3CNc4sccc4C3=O)nn2)c1
IC50 [3]: 30.16 µg/mL (≈ 75.7 µM)

CO[C@@]1(NC(=O)Cc2cccs2)C(=O)N2C(C(=O)O)=C(COC(N)=O)CS[C@@H]21 [CEFOXITIN]
half-life [4]: 0.683 h

Cc1ccc([C@@H]2O[C@H](CO)[C@@H](O)[C@H](O)[C@H]2O)cc1Cc1ccc(-c2ccc(F)cc2)s1 [CANAGLIFLOZIN ANHYDROUS]
half-life [5]: 10.6 h

O=C(CSc1nnc(-c2sc3ccccc3c2Cl)[nH]1)c1ccc(F)cc1
inhibition zone (IZ) (Bacillus subtilis [6]): 16 mm
inhibition zone (IZ) (Staphylococcus aureus): 15 mm

CCOC(=O)c1c(NC(=O)c2c(NC(=O)CC#N)sc3c2CCC3)sc2c1CCCC2
inhibition [7]: 64.1%

Cc1cc(Cl)ccc1-c1ccc(NC(=O)C(Cc2ccc(C(=O)NCCS(=O)(=O)O)s2)c2ccc(-c3ccc(OC(F)(F)F)cc3)cc2)cc1 (stereo not given)
IC50 (Glucagon receptor [8]): 6.1 µM
IC50 (Glucagon receptor [9]): 4.4 µM

COC1=C(Nc2sc3c(c2C(N)=O)CCCC3)C(=O)c2ccccc2C1=O
inhibition [7]: 96%

CC(=O)Oc1cc2c(s1)CCN(C(C(=O)C1CC1)c1ccccc1F)C2 (stereo not given)
half-life [5]: 7.4 h

O=C(O[C@H]1C[N+]2(CCCOc3ccccc3)CCC1CC2)C(O)(c1cccs1)c1cccs1
half-life [1]: 24 h

CC(C(=O)O)c1ccc(C(=O)c2ccccc2)s1 (stereo not given) [TIAPROFENIC ACID]
half-life [1]: 1.5 h

CC(=O)c1ccc(NC(=O)c2sc(Nc3ccccc3)c(C(=O)Nc3ccccc3)c2N)cc1
inhibition [10]: 62%

Cc1ccsc1C(=CCCN1CCC[C@@H](C(=O)O)C1)c1sccc1C [TIAGABINE]
half-life [1]: 7 h

Cc1ccc2c(c1)n(CN1CCN(c3ccccc3)CC1)c(=O)n2CN1CCN(c2ccccc2)CC1
IC50 [11]: 0.11 µM

COc1ccc(/C=C2\SC(=S)N(NC(=O)c3sc4ccccc4c3Cl)C2=O)cc1OC
IC50 [12]: 2.33 µM

COc1ccsc1CNCC[C@@]1(c2ccccn2)CCOC2(CCCC2)C1 [OLICERIDINE]
half-life [4]: 1.3 h

O=c1[nH]c(-c2sc3ccccc3c2Cl)nc2ccccc12
inhibition zone (IZ) (Bacillus subtilis [13]): 16 mm
inhibition zone (IZ) (Escherichia coli): 12 mm

COc1cccc2c1C(=O)c1c(O)c3c(c(O)c1C2=O)C[C@@](O)(C(=O)CO)C[C@@H]3O[C@H]1C[C@H](N)[C@H](O)[C@H](C)O1 [DOXORUBICIN]
IC50 (MDA-MB-231): 0.98 µM
IC50 (PC-3): 0.7 µM
IC50 (A549): 0.7 µM
